Measured values published in the NIST ThermoML archive (doi:10.1021/je9002515).

Test: xn = mol fraction of the nth substance listed
Settings: 101 kPa, Liquid, Alternating current cell with electrodes

CNC(C)=O [N-methylacetamide] + CC(=O)N(C)C
electrical conductivity [S/m]
Settings	303.15 K	313.15 K	323.15 K	333.15 K	343.15 K	353.15 K	363.15 K	373.15 K	383.15 K	393.15 K
x1 = 0.1041	0.0107	0.0131	0.0151	0.0175	0.0202	0.0234	0.0269	0.0305	0.0344	0.0396
x1 = 0.2077	0.0173	0.0201	0.023	0.0261	0.0299	0.0349	0.0413	0.049	0.0567	0.0641
x1 = 0.3056	0.0162	0.0192	0.0229	0.0273	0.0331	0.0403	0.0495	0.06	0.0708	0.081
x1 = 0.4019	0.0203	0.0241	0.0285	0.0335	0.0394	0.0464	0.0548	0.0646	0.075	0.0851
x1 = 0.506	0.0239	0.0287	0.034	0.0397	0.0459	0.0532	0.0619	0.0714	0.0813	0.0907
x1 = 0.6088	0.0215	0.0262	0.0315	0.0373	0.0436	0.051	0.0597	0.0702	0.0816	0.0934
x1 = 0.6985	0.0328	0.04	0.0485	0.0584	0.0688	0.0798	0.0922	0.106	0.119	0.131
x1 = 0.7974	0.0314	0.039	0.0477	0.0571	0.0666	0.076	0.0854	0.0948	0.105	0.118
x1 = 0.9001	0.0329	0.0421	0.0528	0.0645	0.0778	0.0929	0.11	0.127	0.146	0.167
x1 = 1	0.0324	0.0447	0.0614	0.0775	0.105	0.129	0.165	0.192	0.219	0.247
